Assay results taken from the supplement of paper PMC10307832.

What was measured:
Assay in all cases: relative viability (nuclei count vs DMSO), 5 days (fraction); higher = more cells survive
ChaGo-K-1 = system: ChaGo-K-1
Outline: (§1)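 Each reported value is a median over duplicate plates. It expresses relative viability: treated-well nuclei count divided by vehicle-well nuclei count. Lung cancer cell lines in 1536-well plates were dosed by pin tool a day after seeding, alone with one drug or with a fixed anchor-drug dose plus five library-drug doses (not always all listed) in √10 steps, and nuclei were counted after 5 days.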

EPLC-272H = system: EPLC-272H
Outline: as §1

H3255 = system: H3255
Outline: as §1

HARA = system: HARA
Outline: as §1

HCC-78 = system: HCC-78
Outline: as §1

HOP-62 = system: HOP-62
Outline: as §1

LCLC-97TM1 = system: LCLC-97TM1
Outline: as §1

LXF-289 = system: LXF-289
Outline: as §1

NCI-H1395 = system: NCI-H1395
Outline: as §1

NCI-H1437 = system: NCI-H1437
Outline: as §1

NCI-H1666 = system: NCI-H1666
Outline: as §1

NCI-H1793 = system: NCI-H1793
Outline: as §1

NCI-H1944 = system: NCI-H1944
Outline: as §1

NCI-H2085 = system: NCI-H2085
Outline: as §1

NCI-H2087 = system: NCI-H2087
Outline: as §1

NCI-H2126 = system: NCI-H2126
Outline: as §1

NCI-H3122 = system: NCI-H3122
Outline: as §1

NCI-H441 = system: NCI-H441
Outline: as §1

NCI-H596 = system: NCI-H596
Outline: as §1

PC-14 = system: PC-14
Outline: as §1

Q: What does the source list for CN1CCN(CCOc2cc(OC3CCOCC3)c3c(Nc4c(Cl)ccc5c4OCO5)ncnc3c2)CC1 [Saracatinib] + NC(=O)Nc1cc(-c2cccc(F)c2)sc1C(=O)N[C@H]1CCCNC1 [AZD7762] (partner 0.2 µM)?
A: relative viability (ChaGo-K-1; first compound 0.02 µM): 0.895; relative viability (ChaGo-K-1; first compound 0.2 µM): 0.614; relative viability (ChaGo-K-1; first compound 0.6325 µM): 0.967; relative viability (ChaGo-K-1; first compound 2 µM): 0.924; relative viability (EPLC-272H; first compound 0.02 µM): 0.203; relative viability (EPLC-272H; first compound 0.2 µM): 0.229; relative viability (EPLC-272H; first compound 0.6325 µM): 0.18; relative viability (EPLC-272H; first compound 2 µM): 0.245; relative viability (H3255; first compound 0.02 µM): 0.959; relative viability (H3255; first compound 0.2 µM): 0.917; relative viability (H3255; first compound 0.6325 µM): 0.966; relative viability (H3255; first compound 2 µM): 0.346; relative viability (HARA; first compound 0.02 µM): 0.413; relative viability (HARA; first compound 0.2 µM): 0.345; relative viability (HARA; first compound 0.6325 µM): 0.247; relative viability (HARA; first compound 2 µM): 0.355; relative viability (HCC-78; first compound 0.02 µM): 0.583; relative viability (HCC-78; first compound 0.6325 µM): 0.774; relative viability (HCC-78; first compound 2 µM): 0.421; relative viability (HOP-62; first compound 0.02 µM): 0.945; relative viability (HOP-62; first compound 0.2 µM): 0.614; relative viability (HOP-62; first compound 0.6325 µM): 0.707; relative viability (HOP-62; first compound 2 µM): 0.905; relative viability (LCLC-97TM1; first compound 0.02 µM): 0.294; relative viability (LCLC-97TM1; first compound 0.6325 µM): 0.398; relative viability (LCLC-97TM1; first compound 2 µM): 0.265; relative viability (LXF-289; first compound 0.02 µM): 1.12; relative viability (LXF-289; first compound 0.2 µM): 1.09; relative viability (LXF-289; first compound 0.6325 µM): 1.12; relative viability (LXF-289; first compound 2 µM): 1.1; relative viability (NCI-H1395; first compound 0.02 µM): 0.404; relative viability (NCI-H1395; first compound 0.2 µM): 0.397; relative viability (NCI-H1395; first compound 0.6325 µM): 0.388; relative viability (NCI-H1395; first compound 2 µM): 0.382; relative viability (NCI-H1437; first compound 0.02 µM): 1.12; relative viability (NCI-H1437; first compound 0.2 µM): 1.17; relative viability (NCI-H1437; first compound 0.6325 µM): 1.17; relative viability (NCI-H1437; first compound 2 µM): 1.07; relative viability (NCI-H1666; first compound 0.02 µM): 0.956; relative viability (NCI-H1666; first compound 0.2 µM): 0.821; relative viability (NCI-H1666; first compound 0.6325 µM): 1.07; relative viability (NCI-H1666; first compound 2 µM): 0.847; relative viability (NCI-H1793; first compound 0.02 µM): 0.304; relative viability (NCI-H1793; first compound 0.2 µM): 0.233; relative viability (NCI-H1793; first compound 0.6325 µM): 0.312; relative viability (NCI-H1793; first compound 2 µM): 0.26; relative viability (NCI-H1944; first compound 0.02 µM): 0.476; relative viability (NCI-H1944; first compound 0.2 µM): 0.413; relative viability (NCI-H1944; first compound 0.6325 µM): 0.528; relative viability (NCI-H1944; first compound 2 µM): 0.404; relative viability (NCI-H2085; first compound 0.02 µM): 1.06; relative viability (NCI-H2085; first compound 0.2 µM): 0.864; relative viability (NCI-H2085; first compound 0.6325 µM): 0.903; relative viability (NCI-H2085; first compound 2 µM): 0.871; relative viability (NCI-H2087; first compound 0.02 µM): 1.33; relative viability (NCI-H2087; first compound 0.2 µM): 1.13; relative viability (NCI-H2087; first compound 0.6325 µM): 1.76; relative viability (NCI-H2087; first compound 2 µM): 1.31; relative viability (NCI-H2126; first compound 0.02 µM): 1; relative viability (NCI-H2126; first compound 0.2 µM): 0.883; relative viability (NCI-H2126; first compound 0.6325 µM): 1.01; relative viability (NCI-H2126; first compound 2 µM): 0.993; relative viability (NCI-H3122; first compound 0.02 µM): 0.97; relative viability (NCI-H3122; first compound 0.2 µM): 0.922; relative viability (NCI-H3122; first compound 0.6325 µM): 0.889; relative viability (NCI-H3122; first compound 2 µM): 0.698; relative viability (NCI-H441; first compound 0.02 µM): 1.06; relative viability (NCI-H441; first compound 0.2 µM): 1.16; relative viability (NCI-H441; first compound 0.6325 µM): 1.2; relative viability (NCI-H441; first compound 2 µM): 1.03; relative viability (NCI-H596; first compound 0.02 µM): 1.12; relative viability (NCI-H596; first compound 0.2 µM): 1.05; relative viability (NCI-H596; first compound 0.6325 µM): 1.14; relative viability (NCI-H596; first compound 2 µM): 0.852; relative viability (PC-14; first compound 0.02 µM): 0.381; relative viability (PC-14; first compound 0.2 µM): 0.286; relative viability (PC-14; first compound 0.6325 µM): 0.246; relative viability (PC-14; first compound 2 µM): 0.203
